The results in this text go back to patent publication US9527832B2, “Substituted condensed pyrimidine compounds” (GRÜNENTHAL GMBH, priority 2013, dated 2016).

Molecules are shown by their SMILES. Where “and” joins values, the source holds several entries; their conditions need not be identical. Equal entries are not always repeated.

For the assay, the target named is T1, human PDE4B1 (Homo sapiens, UniProt Q07343).
T1 construct: host or cells: Sf9 cells
Kind of assay: cAMP HTRF assay to determine the activity of hPDE4B1. Type of assay: biochemical. Conditions: for inhibition at 1 µM: Percentage inhibition of PDE4B at 1 μM test concentration; for IC50: dose response measurements with eight concentrations, reported as ranges, read-out: IC50. Summed up: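 Sf9-expressed recombinant human PDE4B1 (4.8 U) in Tris-HCl/MgCl2/DTT/Tween 20 buffer pH 7.8, with cAMP at 40 nM final, 30 min at room temperature. Reaction stopped with IBMX 1 mM; remaining cAMP detected by HTRF (665/620 nm ratio). IC50 from eight-point dose-response, n=2.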

T1 sequence (Q07343 whole entry): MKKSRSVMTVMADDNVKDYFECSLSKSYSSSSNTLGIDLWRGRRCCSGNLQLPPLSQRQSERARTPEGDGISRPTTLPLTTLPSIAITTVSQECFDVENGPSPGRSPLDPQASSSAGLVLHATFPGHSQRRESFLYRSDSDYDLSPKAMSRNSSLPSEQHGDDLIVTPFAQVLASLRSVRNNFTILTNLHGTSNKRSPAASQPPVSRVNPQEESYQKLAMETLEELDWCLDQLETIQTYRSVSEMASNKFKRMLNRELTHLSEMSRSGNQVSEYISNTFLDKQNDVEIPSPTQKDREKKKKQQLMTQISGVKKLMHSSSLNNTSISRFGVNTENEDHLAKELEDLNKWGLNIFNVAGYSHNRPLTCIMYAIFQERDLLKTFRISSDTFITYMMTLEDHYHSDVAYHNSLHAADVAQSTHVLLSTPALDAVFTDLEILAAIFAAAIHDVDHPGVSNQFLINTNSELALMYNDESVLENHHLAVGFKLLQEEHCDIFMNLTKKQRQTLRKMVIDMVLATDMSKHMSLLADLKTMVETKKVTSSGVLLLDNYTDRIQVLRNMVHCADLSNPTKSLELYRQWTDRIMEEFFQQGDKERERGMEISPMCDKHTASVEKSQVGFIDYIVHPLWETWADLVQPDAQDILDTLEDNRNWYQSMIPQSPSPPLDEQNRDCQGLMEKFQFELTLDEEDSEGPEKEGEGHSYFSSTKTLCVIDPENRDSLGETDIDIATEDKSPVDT

As to `CN(C)C(=O)COc1ccc2c(c1)ncn2-c1nc(-c2ccc(Cl)s2)nc2c1C[S+]([O-])C2` (single isomer, unassigned) [Compound No. 2-75, 2-((1-(2-(5-Chlorothiophen-2-yl)-6-oxido-5,7-dihydrothieno[3,4-d]pyrimidin-4-yl)-1H-benzo[d]imidazol-5-yl)oxy)-N,N-dimethylacetamide], the inhibition (commonly the change of the read-out against control, counted positive when it falls) at 1 µM worked out at 39%.
With `COc1ccc(-c2nc3c(c(N4CCc5ccc(OCC(=O)N(C)C)cc54)n2)CS(=O)(=O)C3)nc1` [Compound No. 2-143, 2-((1-(2-(5-Methoxypyridin-2-yl)-6,6-dioxido-5,7-dihydrothieno[3,4-d]pyrimidin-4-yl)indolin-6-yl)oxy)-N,N-dimethylacetamide], the inhibition at 1 µM was found to be 87%; the IC50 – broadly, the concentration that gives 50% inhibition – was 0.1 to 1 µM and < 0.1 µM.
Regarding `CN(C)C(=O)COc1ccc2cnn(-c3nc(-c4ccc(Cl)s4)nc4c3C[S+]([O-])C4)c2c1` (centres unmarked) [Compound No. 2-72, 2-((1-(2-(5-Chlorothiophen-2-yl)-6-oxido-5,7-dihydrothieno[3,4-d]pyrimidin-4-yl)-1H-indazol-6-yl)oxy)-N,N-dimethylacetamide], the inhibition at 1 µM amounted to 102% and the IC50 is less than 0.1 µM.
Consider `CN(C)C(=O)COc1ccc2c(c1)N(c1nc(-c3cccc(C(F)(F)F)c3)nc3c1C[S+]([O-])C3)CC2` (centres unmarked) [2-101, N,N-Dimethyl-2-[[1-[6-oxo-2-[3-(trifluoromethyl)phenyl]-5,7-dihydro-thieno[3,4-d]pyrimidin-4-yl]-2,3-dihydro-1H-indol-6-yl]oxy]-acetamide], for which the inhibition at 1 µM was 120% and the IC50 is less than 0.1 µM.
Take `Cc1cccc(-c2nc3c(c(N4CCc5ccc(OCC(=O)N(C)C)cc54)n2)C[S+]([O-])C3)c1` (centres unmarked) [2-95, N,N-Dimethyl-2-[[1-(2-m-tolyl-6-oxo-5,7-dihydro-thieno[3,4-d]pyrimidin-4-yl)-2,3-dihydro-1H-indol-6-yl]oxy]-acetamide]: the inhibition at 1 µM was 113% and the half-maximal inhibitory concentration (IC50) was less than 0.1 µM.
In the same order, the values of `COc1ccc(-c2nc3c(c(N4CCc5ccc(OCC(=O)N(C)C)cc54)n2)C[S+]([O-])C3)cc1F` (centres unmarked) [Compound No. 2-36, 2-((1-(2-(3-Fluoro-4-methoxyphenyl)-6-oxido-5,7-dihydrothieno[3,4-d]pyrimidin-4-yl)indolin-6-yl)oxy)-N,N-dimethylacetamide] are 98% and less than 0.1 µM.
For the molecule `N#CCOc1ccc2c(c1)N(c1nc(-c3ccc(Cl)s3)nc3c1CS(=O)(=O)C3)CC2` [Compound No. 3-1, 2-((1-(2-(5-Chlorothiophen-2-yl)-6,6-dioxido-5,7-dihydrothieno[3,4-d]pyrimidin-4-yl)indolin-6-yl)oxy)acetonitrile], the IC50 is 0.1 to 1 µM.
Consider `O=C(O)Cc1ccc2c(c1)CCN2c1nc(-c2cc(Cl)cs2)nc2c1CCC2` [Compound No. 1-18, 2-(1-(2-(4-Chlorothiophen-2-yl)-6,7-dihydro-5H-cyclopenta[d]pyrimidin-4-yl)indolin-5-yl)acetic acid], for which the inhibition at 1 µM came out at 92% and the half-maximal inhibitory concentration (IC50) was less than 0.1 µM.
In the case of `COc1ccc(-c2nc3c(c(N4CCc5ccc(OCC(=O)N(C)C)cc54)n2)CS(=O)(=O)C3)cc1Cl` [Compound No. 2-33, 2-((1-(2-(3-Chloro-4-methoxyphenyl)-6,6-dioxido-5,7-dihydrothieno[3,4-d]pyrimidin-4-yl)indolin-6-yl)oxy)-N,N-dimethylacetamide], the inhibition at 1 µM turned out to be 100% and the IC50 was less than 0.1 µM.
Consider `CN(C)C(=O)COc1ccc2c(c1)N(c1nc(-c3cncnc3)nc3c1C[S+]([O-])C3)CC2` (centres unmarked) [2-144, N,N-Dimethyl-2-[[1-(6-oxo-2-pyrimidin-5-yl-5,7-dihydro-thieno[3,4-d]pyrimidin-4-yl)-2,3-dihydro-1H-indol-6-yl]oxy]-acetamide], for which the inhibition at 1 µM stood at 92% and the IC50 fell in the range of 0.1 to 1 µM.
Take `CN(C)C(=O)COc1ccc2c(c1)N(c1nc(-c3ccc(C(N)=O)s3)nc3c1CS(=O)(=O)C3)CC2` [Compound No. 2-81, 5-(4-(6-(2-(Dimethylamino)-2-oxoethoxy)indolin-1-yl)-6,6-dioxido-5,7-dihydrothieno[3,4-d]pyrimidin-2-yl)thiophene-2-carboxamide]: the IC50 is less than 0.1 µM. The inhibition at 0.1 µM (Percentage inhibition of PDE4B at 0.1 μM test concentration, read-out: Inhibition [%] (inh. at 0.1 μM)) was found to be 113%.
In the case of `CN(C)C(=O)COc1ccc2c(c1)N(c1nc(-c3ccc(C#N)s3)nc3c1CS(=O)(=O)C3)CC2` [Compound No. 2-83, 2-((1-(2-(5-Cyanothiophen-2-yl)-6,6-dioxido-5,7-dihydrothieno[3,4-d]pyrimidin-4-yl)indolin-6-yl)oxy)-N,N-dimethylacetamide], the inhibition at 1 µM was 97% and the half-maximal inhibitory concentration (IC50) was less than 0.1 µM.
In the same order, the values of `CCOc1ccc(-c2nc3c(c(N4CCc5ccc(OCC(=O)N(C)C)cc54)n2)C[S+]([O-])C3)cc1` (centres unmarked) [2-110, 2-[[1-[2-(4-Ethoxyphenyl)-6-oxo-5,7-dihydro-thieno[3,4-d]pyrimidin-4-yl]-2,3-dihydro-1H-indol-6-yl]oxy]-N,N-dimethyl-acetamide] are 119% and less than 0.1 µM.
As to `CN(C)C(=O)COc1ccc2c(c1)N(c1nc(-c3ccc4sccc4c3)nc3c1C[S+]([O-])C3)CC2` (centres unmarked) [2-155, 2-[[1-[2-(Benzo[b]thiophen-5-yl)-6-oxo-5,7-dihydro-thieno[3,4-d]pyrimidin-4-yl]-2,3-dihydro-1H-indol-6-yl]oxy]-N,N-dimethyl-acetamide], the inhibition at 1 µM is 102% and the 50% inhibitory concentration (IC50) was less than 0.1 µM.
Regarding `CN(C)C(=O)COc1ccc2c(c1)N(c1nc(-c3ccc4[nH]ccc4c3)nc3c1C[S+]([O-])C3)CC2` (centres unmarked) [2-152, 2-[[1-[2-(1H-Indol-5-yl)-6-oxo-5,7-dihydro-thieno[3,4-d]pyrimidin-4-yl]-2,3-dihydro-1H-indol-6-yl]oxy]-N,N-dimethyl-acetamide], the inhibition at 1 µM worked out at 88% and the concentration for half-maximal inhibition (IC50) was less than 0.1 µM.
In the same order, the values of `CN(C)C(=O)COc1ccc2c(c1)N(c1nc(-c3ccc4c(c3)CCO4)nc3c1C[S+]([O-])C3)CC2` (centres unmarked) [2-153, 2-[[1-[2-(2,3-Dihydro-benzofuran-5-yl)-6-oxo-5,7-dihydro-thieno[3,4-d]pyrimidin-4-yl]-2,3-dihydro-1H-indol-6-yl]oxy]-N,N-dimethyl-acetamide] are 97% and less than 0.1 µM.
As to `CNC(=O)COc1ccc2c(c1)N(c1nc(-c3ccc(Cl)s3)nc3c1CS(=O)(=O)C3)CC2` [Compound No. 2-58, 2-((1-(2-(5-Chlorothiophen-2-yl)-6,6-dioxido-5,7-dihydrothieno[3,4-d]pyrimidin-4-yl)indolin-6-yl)oxy)-N-methylacetamide], the inhibition at 1 µM came to 70% and the IC50 lay in the range of 0.1 to 1 µM.
In the same order, the values of `CN(C)C(=O)COc1ccc2c(c1)N(c1nc(-c3ccc(Cl)s3)nc3c1CS(=O)(=O)C3)CC2` [Compound No. 2-45, 2-((1-(2-(5-Chlorothiophen-2-yl)-6,6-dioxido-5,7-dihydrothieno[3,4-d]pyrimidin-4-yl)indolin-6-yl)oxy)-N,N-dimethylacetamide] are 105% and less than 0.1 µM.
Consider `O=C(COc1ccc2c(c1)N(c1nc(-c3ccc(Cl)s3)nc3c1CCC3)CC2)NC1COC1` [Compound No. 2-65, 2-((1-(2-(5-Chlorothiophen-2-yl)-6,7-dihydro-5H-cyclopenta[d]pyrimidin-4-yl)indolin-6-yl)oxy)-N-(oxetan-3-yl)acetamide], for which the inhibition at 1 µM was determined as 5%.
With `O=C(COc1ccc2c(c1)N(c1nc(-c3ccc(Cl)s3)nc3c1CS(=O)(=O)C3)CC2)NCCO` [2-62, 2-((1-(2-(5-Chlorothiophen-2-yl)-6,6-dioxido-5,7-dihydrothieno[3,4-d]pyrimidin-4-yl)indolin-6-yl)oxy)-N-(2-hydroxyethyl)acetamide], the inhibition at 1 µM was 91% and the IC50 was less than 0.1 µM.
Consider `O=C(O)Cc1ccc2c(c1)CCN2c1nc(-c2cncs2)nc2c1CCC2` [Compound No. 1-17, 2-(1-(2-(Thiazol-5-yl)-6,7-dihydro-5H-cyclopenta[d]pyrimidin-4-yl)indolin-5-yl)acetic acid], for which the inhibition at 1 µM amounted to 83% and the IC50 lay within 0.1 to 1 µM.
Regarding `CN(C)C(=O)COc1ccc2c(c1)N(c1nc(-c3ccc4cc[nH]c4c3)nc3c1C[S+]([O-])C3)CC2` (centres unmarked) [2-147, 2-[[1-[2-(1H-Indol-6-yl)-6-oxo-5,7-dihydro-thieno[3,4-d]pyrimidin-4-yl]-2,3-dihydro-1H-indol-6-yl]oxy]-N,N-dimethyl-acetamide], the inhibition at 1 µM came out at 86% and the IC50 was less than 0.1 µM.
For the molecule `O=C(O)Cc1ccc2c(c1)CC(=O)N2c1nc(-c2ccc(F)s2)nc2c1CCC2` [Compound No. 1-65, 2-(1-(2-(5-Fluorothiophen-2-yl)-6,7-dihydro-5H-cyclopenta[d]-pyrimidin-4-yl)-2-oxoindolin-5-yl)acetic acid], the inhibition at 1 µM is 34%.
As to `COc1ccc(-c2nc3c(c(N4CCc5ccc(OCC(=O)N(C)C)cc54)n2)CSC3)cc1Cl` [2-31], the IC50 was less than 0.1 µM.
`COc1ccc(-c2nc3c(c(N4CCc5cc(CC(=O)O)ccc54)n2)CCC3)cc1Cl` [Compound No. 1-2, 2-(1-(2-(3-Chloro-4-methoxyphenyl)-6,7-dihydro-5H-cyclopenta[d]-pyrimidin-4-yl)indolin-5-yl)acetic acid]: the inhibition at 1 µM is 91% and the 50% inhibitory concentration (IC50) is less than 0.1 µM.
Take `CN(C)C(=O)COc1ccc2c(c1)N(c1nc(-c3ccc4cnccc4c3)nc3c1C[S+]([O-])C3)CC2` (centres unmarked) [2-148, 2-[[1-(2-Isoquinolin-6-yl-6-oxo-5,7-dihydro-thieno[3,4-d]pyrimidin-4-yl)-2,-dihydro-1H-indol-6-yl]oxy]-N,N-dimethyl-acetamide]: the inhibition at 1 µM was 100% and the half-inhibitory concentration (IC50) was less than 0.1 µM.
